In patent US20160114050A1, “Heparosan/Therapeutic Prodrug Complexes and Methods of Making and Using Same” (The Board of Regents of the University of Oklahoma, priority 2014, published 2016):

T1: mammalian heparanase (HEPase) (Homo sapiens, UniProt Q9Y251)
T1 sequence (Q9Y251 158-543 limits assumed): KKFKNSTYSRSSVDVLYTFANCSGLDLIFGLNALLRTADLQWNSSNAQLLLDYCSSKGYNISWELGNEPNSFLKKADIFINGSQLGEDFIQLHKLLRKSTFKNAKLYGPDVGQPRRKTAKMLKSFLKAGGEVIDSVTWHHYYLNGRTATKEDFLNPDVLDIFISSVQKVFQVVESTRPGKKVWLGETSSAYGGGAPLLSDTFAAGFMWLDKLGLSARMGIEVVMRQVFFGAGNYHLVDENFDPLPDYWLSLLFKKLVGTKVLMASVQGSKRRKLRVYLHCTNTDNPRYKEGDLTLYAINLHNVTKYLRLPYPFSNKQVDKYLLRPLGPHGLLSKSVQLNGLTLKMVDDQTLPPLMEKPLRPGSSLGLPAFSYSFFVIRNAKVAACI
T1 sequence (Q9Y251 36-109 limits assumed): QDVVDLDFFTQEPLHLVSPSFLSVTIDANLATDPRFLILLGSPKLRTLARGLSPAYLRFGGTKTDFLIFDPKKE

B1: HEP-G-CSF (conjugate, UniProt P09919 31-207, looked up)
Granulocyte …: TPLGPASSLPQSFLLKCLEQVRKIQGDGAALQEKLVSECATYKLCHPEELVLLGHSLGIPWAPLSSCPSQALQLAGCLSQLHSGLFLYQGLLQALEGISPELGPTLDTLQLDVADFATTIWQQMEELGMAPALQPTQGAMPAFASAFQRRAGGVLVASHLQSFLEVSYRVLRHLAQP
modifications: heparosan polymer conjugate

Key:
[1] = molecular target: T1, mammalian heparanase (HEPase); conditions: cited from earlier work
[2] = test system: anti-heparosan antibodies; test: ELISA serological test for anti-heparosan IgG/IgM antibodies after repeated immunization; format: in vivo; conditions: rat, multiple boosts over approximately seven months
Text: FIG. 7 depicts the serological test results for potential induction of anti-heparosan antibodies against a heparosan-containing molecule (HEP-G-CSF, heparosan sugar polymer attached to the Granulocyte Colony Stimulating Factor (G-CSF) protein) in a rat model. A control pre-immune sera was collected, and then three animals (Rat #1, #2, and #3) were immunized and periodically boosted with HEP-G-CSF eight times over an approximately seven month period followed by periodic test bleeds. The various serum samples were tested in 96-well plates via ELISA. First, the wells of the plate were coated either with: (i) bovine serum albumin (BSA) to assess the background (‘Control’ shown in grey bars); or (ii) heparosan-BSA (HEP-BSA) conjugate (‘HEP’; shown in black bars), to measure any potential immune response. After blocking all the wells with BSA and washing thoroughly, 1 μl of the pre-immunization serum (the negative control Prebleed, ‘PreB’) or post-immunization serum (collected either on week 9 (Bleed #1; B#1), week 15 (B#2), or week 30 (B#3)) was incubated with wells (the rats had 3, 5, or 9 injections of test antigen, respectively, before these three bleeds). After washing the wells, the presence of any bound rat antibodies was determined by interaction with either an anti-rat IgG (Panel A) or an anti-rat lgM (Panel B) goat secondary antibody-horseradish peroxidase conjugate. […]

| Molecule | HEPase? substantially sensitive to cleavage by mammalian heparanase [1] | induction of specific anti-heparosan antibodies (IgG, IgM) [2] |
| --- | --- | --- |
| Dermatan sulfate | No | – |
| B1 | – | no specific antibodies against heparosan were observed |
